Measurements reported in patent US5169944A, “Methods and compositions for the enteral administration of hepatobiliary MRI contrast agents” (Board of Regents of the University of Washington, priority 1991, dated 1992).
“Also recorded” adds a separate entry of the source.

Columns and labels:
[1] = test system: liver; details: cited from earlier work; for contrast enhancement: subsequent limited imaging experiments
[2] = rat, in vivo
[3] = test system: normal liver parenchyma; assay: MRI enhancement in normal and liver abscess rats: normal liver parenchyma; format: in vivo, Sprague-Dawley rats
[4] = test system: liver metastases (mammary adenocarcinoma R3230 AC); assay: MRI enhancement in rats with liver metastases: tumor; format: in vivo, Fischer 344 female rats; details: for visualization of tumor deposits: i.v.
Experimental: The entire procedure was performed under sterile conditions. Four animals died within 48 hours following surgery.

[5] = test system: normal subcutaneous tissue; assay: MRI enhancement in liver abscess rats: normal subcutaneous tissue; format: in vivo, Sprague-Dawley rats; details: for enhancement of normal subcutis (in words): i.v.
[6] = test system: subcutaneous abscesses; assay: MRI enhancement in liver abscess rats: subcutaneous abscesses; format: in vivo, Sprague-Dawley rats; details: for enhancement of subcutaneous abscesses (in words): i.v.
[7] = Deaths following the imaging experiment; format: in vivo, Sprague-Dawley rats; details: 5 rats per agent, i.v.; unclear whether due to contrast media or anesthesia
Experimental: Pyrogenic liver abscesses were induced in Sprague-Dawley rats following the method of Weinsten, WM, 1975. Twelve female sprague-Dawley rats (250-300 g each) underwent midline laparotomy following intraperitoneal anesthesia with sodium pentobarbital (40-50 mg/kg), and a filtered bacterial inoculum of colonic contents was directly injected into the liver of each rat. Two animals died within 24 hours following surgery and were excluded from the study. The remaining 10 rats underwent MR imaging 4-6 days after surgery, as described below.
These studies were done at an estimated 1/10 of the LD50 of protoporphyrin (Jackson et al, 1985).

[8] = test system: liver abscess; assay: MRI enhancement in liver abscess rats: liver abscess; format: in vivo, Sprague-Dawley rats
[9] = early work; cited from earlier work
[10] = test system: normal liver tissue; details: i.v. 0.04 mmol/kg, 30 minutes
[11] = test system: Vx-2 tumor; assay: MRI signal enhancement, Vx-2 carcinoma model: tumor; format: in vivo, New Zealand White (NZW) rabbits; details: i.v. 0.04 mmol/kg, 30 minutes
[12] = solubility and stability in hydrophilic and lipophilic solvents
[13] = test system: liver metastases
[14] = test system: gall bladder; details: i.v. 0.04 mmol/kg, 30 minutes
[15] = test system: normal liver tissue; details: gastric lavage, 0.05 mmol/kg Mn mesoporphyrin + […] mixed micelles, 4 hours
[16] = test system: normal liver parenchyma
Experimental: Imaging experiments were performed with a General Electric CSI-II 2.0 T (85.6 Mhz proton resonant frequency) chemical shift imaging spectrometer (GE Medical Systems, Fremont, Calif.). The proton imaging sequence used was that of a standard pin echo 2DFT sequence that employed a single 3 mm slice thickness with four phase cycled signal acquisitions. […] Coronal images were obtained of the rats+ abdomen and thorax using a TR of 160 msec and a TE of 16 msec. A specially designed 53 mm outer diameter (130 mm long) imaging coil of the low-pass birdcage resonantor design was employed with a balanced-matched tuning network for all images. […]
Signal intensity was measured by region-of-interest (ROI) analysis both for normal liver parenchyma, liver lesions and a corn oil standard. […] Signal intensity was measured over the center of the hepatic abscesses. Signal intensities were also determined for normal subcutaneous tissue in the area of the thoracic wall and for subcutaneous abscesses located in the anterior abdominal wall in rats with liver abscesses. Measured signal intensities (SI) were normalized to the intensity of the corn oil standard for all pre- and postcontrast images. Signal intensity enhancement was calculated according to the formula: (SI postcontrast-SI precontrast)/SI precontrast. […]

[17] = in vitro

In the case of `O=C([O-])CN(CCN(CC(=O)[O-])CC(=O)[O-])CCN(CC(=O)[O-])C(COCc1ccccc1)C(=O)[O-].[Gd+3]` (stereo not drawn) [Gd-BOPTA], the “hepatic excretion and bile duct opacification” value ([1]; in vivo) is given as “undergoes hepatic excretion and opacifies the bile ducts”.
In the case of `CNC[C@H](O)[C@@H](O)[C@H](O)[C@H](O)CO.CNC[C@H](O)[C@@H](O)[C@H](O)[C@H](O)CO.O=C([O-])CN(CCN(CC(=O)[O-])CC(=O)O)CCN(CC(=O)[O-])CC(=O)O.[Gd+3]` [Gd-DTPA, gadopentetate dimeglumine], the “contrast enhancement of normal liver and focal liver lesions” value ([1]; intravenous) is given as “nonselectively enhances either normal liver, focal liver lesions or both”.
In the case of `O=S(=O)([O-])c1ccc(-c2c3nc(c(-c4ccc(S(=O)(=O)[O-])cc4)c4ccc([nH]4)c(-c4ccc(S(=O)(=O)[O-])cc4)c4nc(c(-c5ccc(S(=O)(=O)[O-])cc5)c5ccc2[nH]5)C=C4)C=C3)cc1.[Mn+4]` [Mn TPPS4, manganese tetrakis-(4-sulfonatophenyl)porphyrin, reference compound], the skin discoloration [2] is reported as “green discoloration of the skin”, the “enhancement of normal liver parenchyma” value ([3]; i.v. Mn TPPS4, 10 minutes post injection, p greater than 0.05) is reported as 43% and the “visualization of tumor deposits” value [4] is reported as “failed to help in distinguishing the site of the tumor deposits”. The “enhancement of liver and tumor / lesion discrimination” value ([4]; i.v. Mn-TPPS4) was “enhanced both liver and tumor thus providing no discrimination of the lesion”, the “enhancement of normal subcutis (in words)” value [5] was “enhanced both subcutis and subcutaneous abscesses” and the “enhancement of normal subcutaneous tissue” value ([5]; i.v. Mn TPPS4, 60 minutes, p less than 0.05) was 56%. The “enhancement of subcutaneous abscesses (in words)” value [6] was “enhanced both subcutis and subcutaneous abscesses”, the “enhancement of subcutaneous abscesses” value ([6]; i.v. Mn TPPS4, 60 minutes, p greater than 0.05) was 88% and the “death following the imaging experiment” value [7] was “One rat”. For the same compound, the “contrast between normal and diseased tissue” value ([8]; i.v.) was “enhanced both normal liver and abscesses, thus providing no improved contrast between normal and diseased tissue” and the “enhancement of liver abscess” value ([8]; i.v. Mn TPPS4, 10 minutes post injection, p less than 0.05) was 63%.
In the case of `C=CC1=C(C)c2cc3[n-]c(cc4[n-]c(cc5nc(cc1n2)C(C)=C5C=C)c(C)c4CCC(=O)[O-])c(CCC(=O)[O-])c3C.[H+].[H+].[Mn+2]` [manganese protoporphyrin], the contrast enhancement [1] is listed as “caused hepatic and biliary contrast enhancement”.
In the case of `C=CC1=C(C)c2cc3[nH]c(cc4nc(cc5[nH]c(cc1n2)c(C)c5CCC(=O)O)C(CCC(=O)O)=C4C)c(C)c3C=C` [protoporphyrin], the “T1 effects in the liver” value ([1]; early work) is given as “tissue specific T1(inversion time) effects were clearly demonstrated in the liver”, the solubility [9] is given as “poor solubility” and the toxicity [9] is given as “apparent high toxicity”.
With “manganese (III) mesoporphyrin [Mn mesoporphyrin]” the liver enhancement ([3]; i.v. 0.035-0.045 mmol/kg, 10 minutes, p less than 0.01) was 43%, the “prolonged enhancement of normal liver parenchyma” value ([3]; i.v., over the observation period of 60 min, significant) was 30-50% and the “enhancement of the liver (MRI signal intensity)” value [10] was 89.6+/-17.5%. The delayed tumor enhancement ([4]; 24 and 48 hrs, n=3 rats) was “no delayed tumor enhancement was observed”, the “visualization of tumor deposits” value [4] was “made visualization of tumor deposits extremely simple” and the “effect on signal intensity of metastases” value ([4]; i.v. 0.035 mmol/kg, center and periphery of tumors, over 60 min, n=6 rats) was “did not significantly affect the signal intensity of metastases”. The “enhancement of the tumor tissue (MRI signal intensity)” value [11] was 12.7+/-12.1%, the “statistical significance of tumor enhancement” value [11] was “not statistically significant” and the “enhancement of normal subcutis (in words)” value [5] was “did not yield enhancement; also recorded: did not enhance either subcutis or subcutaneous abscesses”. The “solubility in K2PO4 / water-based buffer” value [12] was “improved solubility in high pH solutions”, the tumor-to-liver contrast ([13]; gastric, 0.05 mmol/kg + […] mixed micelles, single observation vs control animal) was “significant increase of the tumor-to-liver contrast” and the “enhancement properties, oral vs intravenous” value ([13]; tumor-to-liver contrast, oral administration) was “substantially equivalent to the properties established for intravenous administration”. For the same compound, the “contrast enhancement of normal hepatic tissue” value ([1]; T1 weighted MRI, non-toxic doses) was “contrast enhancement of normal hepatic tissue leading to improved diagnostic visualization of tumors and abscesses”, the “enhancement of the gall bladder (MRI signal intensity)” value [14] was 373+/-92.3% and the “enhancement of subcutaneous abscesses (in words)” value [6] was “did not yield enhancement; also recorded: did not enhance either subcutis or subcutaneous abscesses”. The “enhancement of normal liver tissue over baseline” value [15] was 65%, the “increase of signal intensity of normal liver parenchyma over baseline” value ([16]; 24 and 48 hrs, n=3 rats, may be artificially high) was 30% and the “maximum enhancement of normal liver parenchyma” value ([16]; i.v. 0.035 mmol/kg, over 60 min) was 70%. The “death following the imaging experiment” value [7] was “one”, the binding by cholestyramine [17] was “cholestyramine binds Mn mesoporphyrin” and the “enhancement of liver abscesses (in words)” value ([8]; i.v., any time) was “not enhanced at any time”.
For manganese uroporphyrin, the contrast enhancement [1] is given as “produced dramatic contrast effects in the kidneys and urine”.
